According to patent US5470714A, “One-step free fatty acid determination method” (Lidak Pharmaceuticals, priority 1993, dated 1995):

T1: I-FABP (native, rat intestinal) (Rattus norvegicus, UniProt P02693)
T1 construct: made in house; host or cells: E. coli BL21 (pET11D)
T1 sequence (P02693 1-132): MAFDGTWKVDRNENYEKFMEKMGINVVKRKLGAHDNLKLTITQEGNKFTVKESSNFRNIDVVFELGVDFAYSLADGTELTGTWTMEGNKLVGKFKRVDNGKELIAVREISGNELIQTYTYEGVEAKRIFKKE

B1: Cys27 mutant of I-FABP with acrylodan: Cys27 mutant of I-FABP (Lys27 to Cys27) with acrylodan (conjugate, UniProt P02693 2-132, looked up, variant K27C)
Fatty acid-binding protein, …: AFDGTWKVDRNENYEKFMEKMGINVVCRKLGAHDNLKLTITQEGNKFTVKESSNFRNIDVVFELGVDFAYSLADGTELTGTWTMEGNKLVGKFKRVDNGKELIAVREISGNELIQTYTYEGVEAKRIFKKE
modifications: acrylodan label
B2: Native A-FABP labeled with acrylodan: Native A-FABP which contains two cysteines, was labeled with acrylodan (conjugate, UniProt P15090 2-132, looked up)
Fatty acid-binding protein, …: CDAFVGTWKLVSSENFDDYMKEVGVGFATRKVAGMAKPNMIISVNGDVITIKSESTFKNTEISFILGQEFDEVTADDRKVKSTITLDGGVLVHVQKWDGKSTTIKRKREDDKLVVECVMKGVTSTRVYERA
modifications: acrylodan label
B3: Native A-FABP labeled with NBD: Native A-FABP labeled with the N-[7-(4-nitrobenzo-2-oxa-1,3-diazol) (NBD) moieties (conjugate, UniProt P15090 2-132, looked up)
Fatty acid-binding protein, …: B2 Fatty acid-binding protein, …
modifications: NBD label
notes: Native A-FABP labeled with the N-[7-(4-nitrobenzo-2-oxa-1,3-diazol) (NBD) moieties

Tests used:
[1] = target: ADIFAB (Acrylodan derivatized native rat I-FABP, Lys27) (Rattus norvegicus, UniProt P02693); test: biochemical; type: binding; conditions: for rank of Kd, in words: among the long chain FA of Table I
Protocol: In most of the studies FFA was added to ADIFAB, in a buffer (A) consisting of 10 Mm HEPES, 150 Mm NaCI, 5 mM KCI, and 1 mM NaHPO4 at pH 7.4, as the sodium salt of the fatty acid. […] FA bind to most surfaces and values of the total FA concentration ([FAT]) were corrected for FA binding to cuvette and container walls. This binding was determined using trace amounts of […] labeled FA and, separately, ADIFAB florescence to determine the degree of FA loss upon transfer from one container to another. […] To minimize FA binding to surfaces, the monomer concentrations of stock solutions of the Na salts were maintained at pH >9.0 in water, and were warmed to >37° C. just prior to use. The polyunsaturated forms of the FA are subject to oxidation and it was observed that dissociation constants for binding to ADIFAB (Kd) were considerably greater for the oxidized FA. Care was taken to reduce the exposure of the FA salts to oxygen (all handling was carried out under Argon) and to store them at -20° C.
The concentrations of FA in the aqueous phase (FFA) and FA bound to ADIFAB ([FAb ]) were determined from the ratio of fluorescence emission intensities at 432 and 505 nm (R). The values FFA and [FAb ]were related to the ratio of intensities essentially by the method of Grynkiewicz et. al. (Grynkiewicz, G., Poenie, M., & Tsien, R. Y. (1985) J. Biol. Chem. 260, 3440-3450), according to which:
[FAb ]=[ADIFABtotal ]Q(fr)/(1-fr+FRQ) FR
are the ADIFAB intensities with zero and saturating concentrations of FFA, Ro is the intensity ratio in the absence of FFA and Rmax is the value when ADIFAB is saturated.
Because of the limiting solubility of long chain FA in aqueous solution Rmax and Q cannot. in general, be determined directly. To determine Rmax and Q, ADIFAB was titrated with lauric acid (12:0) whose high CMC allowed maximum R values (~10-11) to be measured that were considerably greater than with longer chain FA. From this titration a linear correlation was found between Q and R. Using Q, R pairs predicted by this relationship, a two parameter (Kd and Rmax) least squares analysis of each FA was done using the equation for equilibrium binding;
1/[FAb ]=(Kd/[ADIFAB])/FFA+1/[ADIFAB] (3)
Optimal Q and Rmax values obtained in this analysis were in the range 17-22 and 10 and 13, respectively, with average values of 19.5 and 11.5. Final Kd values for each FA were then determined by least squares analysis of equation (3) with Q and Rmax fixed at 19.5 and 11.5, respectively.
Fluorescence measurements to monitor Acrylodan fluorescence in various solvents, to monitor adduct formation, and to obtain complete spectra were carried out using an SLM 8000C fluorometer. Measurements of the 505/432 intensity ratios (R values) used to monitor the FFA titrations of ADIFAB were done with either the SLM 8000C or a Perkin-Elmer MPF-2A fluorometer.
ADIFAB dose response to FFA and FFA aggregate formation was measured. The ratio of fluorescent intensities at emission wavelengths of 505/432 nm were measured as a function of added Na salts of several FFA. Resulting data are depicted graphically in FIGS. 6A, 6B and 6C. Conditions were similar to those used in FIG. 3 except that 100mM EGTA was used in obtaining the data depicted in FIGS. 6A and 6B, while the data depicted in FIG. 6C was obtained using 1 mM CaCl2. Measured R values were used to determine FFA and [FFAb]using equations (1) and (2). The solid curves through the data of FIGS. 6A and 6C represent best fits of equation (3) obtained using a non-linear least squares algorithm. Aggregate formation was detected by measuring 90° light scattering from FFA in the buffer of FIG. 3 containing no added calcium and titrated with the Na salts of the FFA as described above, see FIG. 6B. The smoothed curves through the data, intended to guide-the-eye, indicate that aggregate formation, as detected by a sharp increase in light scattering, is approximately coincident with the maximum R value observed in the experiment related to FIG. 6A. […]

[2] = target: T1, I-FABP (native, rat intestinal); test: Tryptophan fluorescence of native I-FABP on addition of FFA; type: binding; conditions: as much as
Protocol: In early work, cloning was carried out using a cDNA library from neo-natal rat intestine purchased from STRATAGENE (11099 North Torrey Pines Rd., La Jolla, CA 92037). The library is carried by the LAMBDA ZAP II vector and was used with the E. coil host strain XL 1Blue which is supplied with the library. The recombinant clone was identified with an oligonucleotide probe based upon the published sequence of the I-FABP DNA (Lowe, J. B., Sacchettini, J. C., Laposata, M., McQuillan, J. J. and Gordon, J. I. J. Biol. Chem. 262:5931, 1987) and sequencing of 5and 3regions was used to verify the identity and completeness of the gene. […] The I-FABP gene was removed from the lambda Zap vector and inserted into a PET expression vector (PET11 D) purchased from Novagen and the protein was expressed using the E. coil strains (BL2 1) also from Novagen (Madison, WI, USA). I-FABP is isolated from E. coil and purified as described, Lowe, J. B., Sacchettini, J. C., Laposata, M., McQuillan, J. J. and Gordon, J. I. J. Biol. Chem. 262:5931, 1987. In this procedure cells, after a 3-hour culture, are lysed, centrifuged to remove cell debris and the pellet frozen at -70 °C. The frozen pellet was allowed to thaw in the presence of a lysing buffer composed of 50mM Tris, 0.5mM EDTA, 0.5mM PMSF, 0.1% Triton X100, at pH 8.0. This was centrifuged at 20,000 g. for 45 minutes and the pellet was discarded. The lysate was then subjected to two rounds (50% and 70%) of ammonium sulfate precipitation and the supernatant from the 70% material was desalted and concentrated using an Amicon ultrafiltration apparatus with a YM10 filter. The flitrate was then subjected to DEAE-Sephadex (A50), followed by Sephadex G-75 chromatography and the low molecular weight fractions were saved. This material gives a single band on 12% PAGE and an amino acid analysis of this material was consistent with the amino acid sequence of I-FABP. […] The addition of FFA (oleate, stearate, or palmitate) reduced the tryptophan fluorescence of the native protein by as much as 40%.

[3] = Fluorescence response of fluorescent-FABP probes to fatty acid binding; type: biochemical
Text: Principles and exemplary methods for constructing probes as described and defined herein and methods for determining FFA levels are described in detail below. Using these principles fourteen different fluorescent-FABP derivatives have been constructed. This has been done using 3 different native FABPs (rat intestine (I-FABP), human adipocyte (A-FABP), and human heart (H-FABP)) plus 4 site-specific mutants of two of these (I-FABP, (Thr83Cys83, Thr81Cys81, Lys27Cys27 and H-FABP, Thr27Lys27), and these proteins have been derivatized with 4 different fluorophores (acrylodan, danzyl aziridine, 4-[N-[(2-iodoacetoxy)ethyl]-N-methylamino]-7-nitrobenz-2-oxa1,3-diazole ester (IANBDE), 4-[N-[(2-iodoacetoxy)ethyl]-N-methylamino]-7-nitrobenz-2-oxa-1,3-diazole these derivatives can serve as FFA probes, to some degree. To date, however, ADIFAB remains the one that has optimal properties for current applications. Obviously, by occupying, partially, the binding site with a fluorophore, FA must compete for its site and therefore the FA binding constant for the FABP may be altered from the native protein. This is indeed the case for ADIFAB for which the Kd is about 10 fold greater than for the native protein. So long as FA can bind, however, the derivatized molecule can still function as a FFA probe and so long as the probe's dynamic range is sufficient (as it is for ADIFAB, IANBDE and IANBDA) then FFA levels over a wide range, including those that are physiologic, can be measured.
The Cys27 mutant of I-FABP (Lys27 to Cys27) with acrylodan, IANBDE and IANBDA have also been labeled using the technique described. […] This is the behavior predicted from the construction principles set forth herein, and reflects the shorter tethering arm to Cys27 as compared to Lys27 which prevents the deeper insertion into the binding site that is observed in the Lys27 derivative. […] Thus, those skilled in the art can with considerable confidence predict whether protein modifications and/or choice of label will result in a FFA responsive probe.
Site-directed mutagenesis was used to introduce a cysteine residue at positions 82 or 84, in place of the threonine residues that are normally at this position. Mutagenesis was carried out by annealing a synthetic prirner with a single mismatched base to the above derived expression vector. The primer was extended and ligated in vitro, and the resulting heteroduplex was used to transfect the host strain. The transfected host was screened for the mutated DNA by hybridization with the mutating oligonucleotide. Mutated plasmid DNA was isolated, retransformed into the host strain, and its structure confirmed by sequencing the recombinant DNA in regions defined by probes flanking the mutated region. This modified protein was expressed in the same system and purified by the same methods as for the native protein. Typical yields of purified protein were approximately 50 mg/liter cell culture. The mutated I-FABP protein was fluorescently derivatized by inserting a fluorescent group (which reacts specifically with free SH groups) at the newly created cysteine residue. The cysteine residue was inserted at positions 82 (replacing a threonine residue) and/or at residue 84 (also a threonine residue) since both these positions face outward from the FFA binding pocket but are in close proximity to the tryptophan at position 83 (about 3.5Å lateral separation along the b strand and about 10Å vertical separation between the centers of the tryptophan and fluorescent residues). […] Thus, either the direct emission of the fluorescent group and/or the rate of resonance energy transfer between Trp83 and the fluorescent group was postulated to change. In a non-limiting prior specific example, the dansyl derivative ACRYLODAN®(6-acryloly-2dimethylamenonaphthalene) was used to modify the mutated FABP and this probe was designated FAD508.
ADIFAB dose response to FFA and FFA aggregate formation was measured. […]

[4] = FA-ADIFAB Dissociation Constants, Kd, no added calcium, FIG. 6A, buffer A pH 7.4

| responsiveness of the probe to FA binding, in words [3] | Molecule | Kd [1, 4] [nM] | rank of Kd, in words [1] | reduction of the tryptophan fluorescence of the native protein [2] [%] | also measured |
| --- | --- | --- | --- | --- | --- |
| – | CCCCCCCC/C=C\CCCCCCCC(=O)O [OLEATE, oleate] | 280 ± 10 | smallest Kds | ≤ 40 | Kd ([1]; Kd in the presence of calcium, 1 mM calcium): 310 nM |
| – | CCCCCCCCCCCCCCCC(=O)O [PALMITATE, palmitate] | 320 ± 10 | smallest Kds | ≤ 40 | Kd relative to oleate (fold greater than oleate) ([1]; normalized to oleate): about 1.1 fold |
| – | CCCCCCCCCCCCCCCCCC(=O)O [stearate] | – | – | ≤ 40 | – |
| only poorly responsive | B2 | – | – | – | – |
| only poorly responsive | B3 | – | – | – | – |

| Molecule | responsiveness of the probe to FA binding, in words [3] | Kd [1, 4] [nM] | rank of Kd, in words [1] | reduction of the tryptophan fluorescence of the native protein [2] [%] | also measured |
| --- | --- | --- | --- | --- | --- |
| B1 | the relative change upon FA binding is smaller than for ADIFAB | – | – | – | – |
